US20140228349A1, “5,7-SUBSTITUTED-IMIDAZO[1,2-C]PYRIMIDINES” (Array BioPharma Inc., priority 2011, published 2014)

How the values were obtained:
Type in all cases: biochemical
Human Tyk2 kinase domain = target: T1, Human Tyk2 kinase domain (Homo sapiens, UniProt P29597); assay: Tyk2 Inhibition Assay (Omnia kinase fluorescence peptide substrate); conditions: averaged IC50 ranges; 10 μM (Km app) or 1 mM ATP, 2 nM Tyk2
T1 construct: comprising amino acids 886 to 1187; His10 (10 histidine residues) (C, cleaved yes); made in house
T1 sequence (P29597 886-1187): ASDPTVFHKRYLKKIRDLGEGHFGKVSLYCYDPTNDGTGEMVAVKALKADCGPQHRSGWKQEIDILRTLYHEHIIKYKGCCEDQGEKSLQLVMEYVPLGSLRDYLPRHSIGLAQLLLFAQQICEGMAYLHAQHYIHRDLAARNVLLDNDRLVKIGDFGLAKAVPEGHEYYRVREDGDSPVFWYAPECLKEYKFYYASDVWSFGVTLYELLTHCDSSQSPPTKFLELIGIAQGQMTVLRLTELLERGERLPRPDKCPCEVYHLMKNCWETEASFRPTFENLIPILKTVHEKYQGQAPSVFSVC
Procedure, shortened: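 Phosphorylation of 8 μM Omnia Y12 peptide followed kinetically by Sox fluorescence, ex 360/em 485 nm, every 50 s for 45 min. Enzyme: 2 nM Tyk2 kinase domain (aa 886–1187, His tag removed); ATP at 10 μM (Km app) or 1 mM; buffer HEPES pH 7.4 with MgCl2, Triton X-100, DTT. 10-point curves up to 10 μM, IC50 from 4-parameter logistic fit.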

JAK1 = target: T2, JAK1 (Homo sapiens, UniProt P23458); assay: JAK1 Inhibition Assay (Omnia kinase fluorescence peptide substrate); conditions: averaged IC50 ranges; 40 μM (Km app) or 1 mM ATP, 15 nM JAK1
T2 construct: purchased Invitrogen Corporation, Carlsbad, Calif; IVGN PV4775
T2 sequence (P23458 whole entry): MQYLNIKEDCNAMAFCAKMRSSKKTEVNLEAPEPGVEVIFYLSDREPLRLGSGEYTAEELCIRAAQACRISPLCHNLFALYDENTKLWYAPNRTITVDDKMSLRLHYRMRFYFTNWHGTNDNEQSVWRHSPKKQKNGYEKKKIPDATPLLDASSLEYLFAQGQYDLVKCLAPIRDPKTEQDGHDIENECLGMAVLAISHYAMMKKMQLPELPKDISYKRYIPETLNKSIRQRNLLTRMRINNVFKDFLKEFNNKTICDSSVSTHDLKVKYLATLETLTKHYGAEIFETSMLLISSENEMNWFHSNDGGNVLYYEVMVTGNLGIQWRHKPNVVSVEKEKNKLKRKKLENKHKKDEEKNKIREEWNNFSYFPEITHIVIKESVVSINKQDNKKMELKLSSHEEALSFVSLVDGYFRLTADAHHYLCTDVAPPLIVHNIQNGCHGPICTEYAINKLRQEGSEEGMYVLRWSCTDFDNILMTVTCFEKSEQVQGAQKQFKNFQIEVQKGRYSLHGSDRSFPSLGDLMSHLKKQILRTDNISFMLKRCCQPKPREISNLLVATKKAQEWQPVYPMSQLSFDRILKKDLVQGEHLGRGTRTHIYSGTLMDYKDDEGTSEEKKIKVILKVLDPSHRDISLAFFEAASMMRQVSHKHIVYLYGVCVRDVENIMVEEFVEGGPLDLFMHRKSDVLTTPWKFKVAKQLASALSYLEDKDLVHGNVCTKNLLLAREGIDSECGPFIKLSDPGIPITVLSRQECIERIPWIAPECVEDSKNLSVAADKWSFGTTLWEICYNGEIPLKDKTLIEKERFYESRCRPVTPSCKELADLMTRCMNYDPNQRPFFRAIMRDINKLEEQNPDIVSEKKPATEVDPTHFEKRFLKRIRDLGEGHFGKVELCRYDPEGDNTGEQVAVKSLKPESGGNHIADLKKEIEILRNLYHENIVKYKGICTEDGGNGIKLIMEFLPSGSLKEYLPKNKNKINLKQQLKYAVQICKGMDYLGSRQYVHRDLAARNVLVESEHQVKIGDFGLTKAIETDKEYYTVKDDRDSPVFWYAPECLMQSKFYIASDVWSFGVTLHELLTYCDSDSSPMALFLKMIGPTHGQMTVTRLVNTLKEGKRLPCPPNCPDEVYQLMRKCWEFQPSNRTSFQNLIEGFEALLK
Procedure, shortened: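 15 nM JAK1, 8 μM Omnia Y12 peptide, 40 μM (Km app) or 1 mM ATP; 25 mM HEPES pH 7.4, 10 mM MgCl2, 2% DMSO. Fluorescence (ex 360/em 485 nm) read every 50 s over 45 min. IC50 by 4-parameter fit of percent of control, top dose 10 μM.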

JAK2 = target: T3, JAK2 (Homo sapiens, UniProt O60674); assay: JAK2 Inhibition Assay (Omnia kinase fluorescence peptide substrate); conditions: averaged IC50 ranges; 25 μM (Km app) or 1 mM ATP, 5 nM JAK2
T3 construct: purchased Invitrogen Corporation, Carlsbad, Calif; IVGN PV4288
T3 sequence (O60674 whole entry): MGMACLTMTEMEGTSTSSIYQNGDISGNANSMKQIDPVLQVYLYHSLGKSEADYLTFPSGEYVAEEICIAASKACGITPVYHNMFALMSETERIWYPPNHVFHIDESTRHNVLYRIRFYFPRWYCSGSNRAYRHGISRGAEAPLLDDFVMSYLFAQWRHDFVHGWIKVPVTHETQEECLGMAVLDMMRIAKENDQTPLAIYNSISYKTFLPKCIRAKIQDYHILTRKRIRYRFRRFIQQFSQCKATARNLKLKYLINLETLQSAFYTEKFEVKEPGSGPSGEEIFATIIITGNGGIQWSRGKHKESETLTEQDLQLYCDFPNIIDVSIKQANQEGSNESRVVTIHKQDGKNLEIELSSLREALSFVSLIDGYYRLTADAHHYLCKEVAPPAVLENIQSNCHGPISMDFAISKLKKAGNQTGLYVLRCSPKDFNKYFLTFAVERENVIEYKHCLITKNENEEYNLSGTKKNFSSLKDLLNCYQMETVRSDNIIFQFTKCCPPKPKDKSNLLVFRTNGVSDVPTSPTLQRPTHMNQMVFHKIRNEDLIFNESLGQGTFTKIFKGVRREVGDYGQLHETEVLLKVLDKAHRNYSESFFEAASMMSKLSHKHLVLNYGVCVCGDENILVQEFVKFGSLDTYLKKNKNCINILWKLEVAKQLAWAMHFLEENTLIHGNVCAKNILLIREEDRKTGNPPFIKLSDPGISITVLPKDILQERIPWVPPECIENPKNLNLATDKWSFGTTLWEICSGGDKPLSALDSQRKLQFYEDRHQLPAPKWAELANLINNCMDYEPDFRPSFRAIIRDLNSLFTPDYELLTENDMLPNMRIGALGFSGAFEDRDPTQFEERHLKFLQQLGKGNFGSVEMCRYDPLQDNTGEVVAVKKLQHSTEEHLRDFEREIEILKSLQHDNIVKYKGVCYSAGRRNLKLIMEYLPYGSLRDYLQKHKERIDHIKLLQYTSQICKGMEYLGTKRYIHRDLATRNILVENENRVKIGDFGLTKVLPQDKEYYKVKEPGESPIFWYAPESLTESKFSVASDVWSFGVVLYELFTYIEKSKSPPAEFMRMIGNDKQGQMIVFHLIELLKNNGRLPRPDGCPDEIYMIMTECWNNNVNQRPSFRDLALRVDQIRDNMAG

JAK3 = target: T4, JAK3 (Homo sapiens, UniProt P52333); assay: JAK3 Inhibition Assay (Omnia kinase fluorescence peptide substrate); conditions: averaged IC50 ranges; 10 μM (Km app) or 1 mM ATP, 2.5 nM JAK3
T4 construct: purchased Invitrogen Corporation, Carlsbad, Calif; IVGN PV4080
T4 sequence (P52333 1-1124): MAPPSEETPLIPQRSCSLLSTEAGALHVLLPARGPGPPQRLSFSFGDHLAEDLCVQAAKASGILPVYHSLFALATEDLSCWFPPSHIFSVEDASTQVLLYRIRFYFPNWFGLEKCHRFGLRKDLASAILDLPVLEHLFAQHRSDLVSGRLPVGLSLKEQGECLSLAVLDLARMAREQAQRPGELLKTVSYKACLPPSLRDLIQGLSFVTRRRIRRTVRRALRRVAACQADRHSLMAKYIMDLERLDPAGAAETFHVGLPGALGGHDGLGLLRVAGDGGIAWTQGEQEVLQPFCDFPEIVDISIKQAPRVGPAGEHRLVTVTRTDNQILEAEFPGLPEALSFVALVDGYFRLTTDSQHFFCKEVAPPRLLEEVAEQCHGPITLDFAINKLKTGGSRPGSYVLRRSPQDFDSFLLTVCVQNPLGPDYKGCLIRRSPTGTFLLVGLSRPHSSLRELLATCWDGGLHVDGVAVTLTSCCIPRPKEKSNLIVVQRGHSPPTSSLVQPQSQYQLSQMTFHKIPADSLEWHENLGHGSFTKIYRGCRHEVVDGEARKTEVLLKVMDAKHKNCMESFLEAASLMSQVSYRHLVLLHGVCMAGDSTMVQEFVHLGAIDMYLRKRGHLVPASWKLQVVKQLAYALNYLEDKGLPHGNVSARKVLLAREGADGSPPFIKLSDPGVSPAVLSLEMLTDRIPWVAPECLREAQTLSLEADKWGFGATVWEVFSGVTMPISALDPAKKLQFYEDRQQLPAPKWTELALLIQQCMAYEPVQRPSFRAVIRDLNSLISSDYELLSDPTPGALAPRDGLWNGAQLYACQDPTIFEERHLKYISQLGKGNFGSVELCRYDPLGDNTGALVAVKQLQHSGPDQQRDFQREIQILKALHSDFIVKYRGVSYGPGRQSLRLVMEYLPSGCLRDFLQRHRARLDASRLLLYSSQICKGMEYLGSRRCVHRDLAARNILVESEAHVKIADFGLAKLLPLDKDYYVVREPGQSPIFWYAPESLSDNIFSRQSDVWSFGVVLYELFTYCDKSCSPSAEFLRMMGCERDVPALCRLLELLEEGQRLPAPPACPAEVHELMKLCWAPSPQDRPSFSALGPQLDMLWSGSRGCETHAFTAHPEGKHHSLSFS
Procedure, shortened: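 IC50 is the concentration giving 50 percent of control on a 4-parameter logistic fit of 10-point, 3-fold dilutions from a 10 μM top dose, at 2% final DMSO. Kinetic Sox fluorescence (360/485 nm) was monitored every 50 s for 45 min. Mix: JAK3 2.5 nM, Omnia Y7 peptide 10 μM, ATP 10 μM (Km app) or 1 mM, in HEPES pH 7.4 buffer with MgCl2, Triton X-100 and DTT.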

[1] = tested on: Tyk2, JAK1, JAK2 and JAK3; assay: in vitro assays (Examples A, B, C and D) taken together; conditions: Reference Examples; statement in words
Description: The assays described in Examples A, B, C and D for the determination of Tyk2, JAK1, JAK2 and JAK3 kinase activity, respectively, utilized the Omnia® Kinase fluorescence peptide substrate-based technology (Invitrogen). The specific components of the assay mixture are described in Examples A, B, C and D. In these assays, Mg^2+ is chelated upon phosphorylation of the Omnia peptide by the kinase to form a bridge between the chelation-enhanced fluorophore Sox and the phosphate, resulting in an increase in fluorescence emission at 485 nm when excited at […]. The reactions were therefore read at excitation 360 nm and emission was measured at 485 nm every 50 seconds for 45 minutes using a PerkinElmer EnVision Multilabel Plate Reader.
The final buffer conditions for Tyk2, JAK1, JAK2, and JAK3 assays were as follows: 25 mM HEPES, pH 7.4, 10 mM MgCl2, 0.01% Triton X-100 and 1 mM DTT.
Compounds were prepared at 50× the final concentration in DMSO by conducting 3-fold serial dilutions from a 500-μM intermediate dilution to give a 10-point dosing curve having a high dose of 10 μM. Two-μL aliquots of these were transferred to a fresh plate for a ten-fold intermediate dilution with assay buffer. Five-μL aliquots of the diluted compounds were then transferred to 20-μL of assay mixtures described in Examples A, B, C and D for a final concentration of DMSO of 2%. A standard or reference compound was typically included on each assay plate to validate that plate. For each plate, percent of control (POC) values were calculated for each well according to the following equation: […]
Compounds of Formula I were screened for their ability to inhibit Tyk2 using the general enzyme inhibition assay method, in which the assay mixture contained 10 μM (Km app) or 1 mM ATP, 8 μM Omnia® Y12 peptide (Catalog #IVGN KPZ3121C; Invitrogen Corporation, Carlsbad, Calif.) and 2 nM Tyk2 in a total volume of 20 μL. Human Tyk2 kinase domain, comprising amino acids 886 to 1187 with 10 additional histidine residues (histidine tag) on the carboxy terminus, was expressed and purified from bacculovirus in-house at Array BioPharma Inc. (Boulder, Colo.). The histidine tag was cleaved after purification using standard conditions.
Compounds of Formula I were screened for their ability to inhibit JAK1 using the general enzyme inhibition assay method, in which the assay mixture contained 40 μM (Km app) or 1 mM ATP, 8 μM Omnia® Y12 peptide (Catalog #IVGN KPZ3121C; Invitrogen Corporation, Carlsbad, Calif.) and 15 nM JAK1 in a total volume of 20 μL. JAK1 was purchased from Invitrogen Corporation, Carlsbad, Calif. (catalog #IVGN PV4775).
(§1) Compounds of Formula I were screened for their ability to inhibit JAK2 using the general enzyme inhibition assay method, in which the assay mixture contained 25 μM (Km app) or 1 mM ATP, 10 μM Omnia® Y7 peptide (Catalog #IVGN KNZ3071C, Invitrogen Corporation, Carlsbad, Calif.) and 5 nM JAK2 in a total volume of 20 μL. JAK2 was purchased from Invitrogen Corporation, Carlsbad, Calif. (catalog #IVGN PV4288).
as §1, with “JAK3” for “JAK2”, “10” for “25”, “2.5” for “5”, “PV4080).” for “PV4288).”

Row | Structure (SMILES) | IC50 (Human Tyk2 kinase domain) [nM] | IC50 (JAK1) [nM] | IC50 (JAK2) [nM] | IC50 (JAK3) [nM] | activity in the in vitro assays [1]
1 | COCCC(C1CCOC1)n1cc(-c2nc(-c3cnn(C)c3)cc3nccn23)cn1 (stereo not drawn) [Example 75, 5-(1-(3-methoxy-1-(tetrahydrofuran-3-yl)propyl)-1H-pyrazol-4-yl)-7-(1-methyl-1H-pyrazol-4-yl)imidazo[1,2-c]pyrimidine] | > 1000 | > 1000 | > 1000 | > 1000 | weakly active
2 | CCN1CC(CCF)(n2cc(-c3nc(-c4cnn(C)c4)cc4nccn34)cn2)C1 [Example 84, 5-(1-(1-ethyl-3-(2-fluoroethyl)azetidin-3-yl)-1H-pyrazol-4-yl)-7-(1-methyl-1H-pyrazol-4-yl)imidazo[1,2-c]pyrimidine] | > 1000 | > 1000 | > 1000 | > 1000 | weakly active
3 | CCNC(=O)N1CC(CCF)(n2cc(-c3nc(-c4cnn(C)c4)cc4nccn34)cn2)C1 [Example 92, N-ethyl-3-(2-fluoroethyl)-3-(4-(7-(1-methyl-1H-pyrazol-4-yl)imidazo[1,2-c]pyrimidin-5-yl)-1H-pyrazol-1-yl)azetidine-1-carboxamide] | > 1000 | > 1000 | > 1000 | > 1000 | weakly active
4 | Cn1cc(-c2cc3nccn3c(-c3cnn(C4(CC(C)(C)O)CN(S(=O)(=O)C(F)(F)F)C4)c3)n2)cn1 [Example 94, 2-methyl-1-(3-(4-(7-(1-methyl-1H-pyrazol-4-yl)imidazo[1,2-c]pyrimidin-5-yl)-1H-pyrazol-1-yl)-1-((trifluoromethyl)sulfonyl)azetidin-3-yl)propan-2-ol] | 100 to 1000 | 100 to 1000 | 100 to 1000 | > 1000 | –
5 | CC(C)S(=O)(=O)N1CC(CCF)(n2cc(-c3nc(-c4cnn(C)c4)cc4nccn34)cn2)C1 [Example 95, 5-(1-(3-(2-fluoroethyl)-1-(isopropylsulfonyl)azetidin-3-yl)-1H-pyrazol-4-yl)-7-(1-methyl-1H-pyrazol-4-yl)imidazo[1,2-c]pyrimidine] | 100 to 1000 | > 1000 | 100 to 1000 | > 1000 | –

More lines, main results first:

Row | IC50 (Human Tyk2 kinase domain) [nM] | IC50 (JAK1) [nM] | IC50 (JAK2) [nM] | IC50 (JAK3) [nM] | Structure (SMILES) | activity in the in vitro assays [1]
6 | > 1000 | > 1000 | > 1000 | > 1000 | CC(=O)N1CC(CCF)(n2cc(-c3nc(-c4cnn(C)c4)cc4nccn34)cn2)C1 [Example 96, 1-(3-(2-fluoroethyl)-3-(4-(7-(1-methyl-1H-pyrazol-4-yl)imidazo[1,2-c]pyrimidin-5-yl)-1H-pyrazol-1-yl)azetidin-1-yl)ethanone] | –
7 | < 10 | 10 to 100 | 10 to 100 | 100 to 1000 | COCCC1(n2cc(-c3nc(-c4cnn(C)c4)cc4nccn34)cn2)CN(S(=O)(=O)C(F)(F)F)C1 [Example 100, 5-(1-(3-(2-methoxyethyl)-1-((trifluoromethyl)sulfonyl)azetidin-3-yl)-1H-pyrazol-4-yl)-7-(1-methyl-1H-pyrazol-4-yl)imidazo[1,2-c]pyrimidine] | –
8 | 100 to 1000 | 100 to 1000 | 100 to 1000 | 100 to 1000 | Cn1cc(-c2cc3nccn3c(-c3ccn([C@@H](C[C@@H](O)C(F)(F)F)C4CC4)c3)n2)cn1 [Example 101, (2R,4S)-4-cyclopropyl-1,1,1-trifluoro-4-(3-(7-(1-methyl-1H-pyrazol-4-yl)imidazo[1,2-c]pyrimidin-5-yl)-1H-pyrrol-1-yl)butan-2-ol] | –
9 | 10 to 100 | 100 to 1000 | 100 to 1000 | > 1000 | Cn1cc(-c2cc3nccn3c(-c3ccn([C@@H](C[C@H](O)C(F)(F)F)C4CC4)c3)n2)cn1 [Example 102, (2S,4S)-4-cyclopropyl-1,1,1-trifluoro-4-(3-(7-(1-methyl-1H-pyrazol-4-yl)imidazo[1,2-c]pyrimidin-5-yl)-1H-pyrrol-1-yl)butan-2-ol] | –
